The values that follow come from patent US12139487B2, “Compounds and uses thereof” (Foghorn Therapeutics Inc., priority 2022, dated 2024).

Assay [1] deals with T1, BRG-1 (Homo sapiens, UniProt P51532).
T1 construct: made in house; host or cells: High Five insect cells
As to the kind of experiment: ATPase catalytic activity assay (ADP-Glo), BRG-1. The note with it: Table 10, read-out: BRG1 IC50. In kind it is biochemical. The method, then:
(§1) The ATPase catalytic activity of BRM or BRG-1 was measured by an in vitro biochemical assay using ADP-Glo™ (Promega, V9102). The ADP-Glo™ kinase assay is performed in two steps once the reaction is complete. The first step is to deplete any unconsumed ATP in the reaction. The second step is to convert the reaction product ADP to ATP, which will be utilized by the luciferase to generate luminesce and be detected by a luminescence reader, such as Envision.
Then, following addition of 5 μL of ADP-Glo™ Reagent provided in the kit, the reaction incubates at room temperature for 40 minutes. Then, 10 μL of Kinase Detection Reagent provided in the kit is added to convert ADP to ATP, and the reaction incubates at room temperature for 60 minutes. Finally, luminescence measurement is collected with a plate-reading luminometer, such as Envision.

For assay [2], the target named is T2, BRM (Homo sapiens, UniProt P51531).
T2 construct: made in house; host or cells: High Five insect cells
Description: ATPase catalytic activity assay (ADP-Glo), BRM. In kind it is biochemical. The note with it: Table 10; for Ratio (BRG1 IC50 (μM) divided by BRM IC50 (μM)): ATPase assay, selectivity BRG1/BRM; for IC50: ATPase catalytic activity assay (ADP-Glo). How it is done:
as §1
The assay reaction mixture […] contains 30 nM of BRM or BRG-1, 20 nM salmon sperm DNA (from Invitrogen, UltraPure™ Salmon Sperm DNA Solution, cat #15632011), and 400 μM of ATP in the ATPase assay buffer, which comprises of 20 mM Tris, pH 8, 20 mM MgCl2, 50 mM NaCl, 0.1% Tween-20, and 1 mM fresh DTT (Pierce™ DTT (Dithiothreitol), cat #20290). The reaction is initiated by the addition of the 2.5 μL ATPase solution to 2.5 μL ATP/DNA solution on low volume white Proxiplate-384 plus plate (PerkinElmer, cat #6008280) and incubates at room temperature for 1 hour. Then, following addition of 5 μL of ADP-Glo™ Reagent provided in the kit, the reaction incubates at room temperature for 40 minutes. Then, 10 μL of Kinase Detection Reagent provided in the kit is added to convert ADP to ATP, and the reaction incubates at room temperature for 60 minutes. Finally, luminescence measurement is collected with a plate-reading luminometer, such as Envision.

T2 sequence (P51531 whole entry): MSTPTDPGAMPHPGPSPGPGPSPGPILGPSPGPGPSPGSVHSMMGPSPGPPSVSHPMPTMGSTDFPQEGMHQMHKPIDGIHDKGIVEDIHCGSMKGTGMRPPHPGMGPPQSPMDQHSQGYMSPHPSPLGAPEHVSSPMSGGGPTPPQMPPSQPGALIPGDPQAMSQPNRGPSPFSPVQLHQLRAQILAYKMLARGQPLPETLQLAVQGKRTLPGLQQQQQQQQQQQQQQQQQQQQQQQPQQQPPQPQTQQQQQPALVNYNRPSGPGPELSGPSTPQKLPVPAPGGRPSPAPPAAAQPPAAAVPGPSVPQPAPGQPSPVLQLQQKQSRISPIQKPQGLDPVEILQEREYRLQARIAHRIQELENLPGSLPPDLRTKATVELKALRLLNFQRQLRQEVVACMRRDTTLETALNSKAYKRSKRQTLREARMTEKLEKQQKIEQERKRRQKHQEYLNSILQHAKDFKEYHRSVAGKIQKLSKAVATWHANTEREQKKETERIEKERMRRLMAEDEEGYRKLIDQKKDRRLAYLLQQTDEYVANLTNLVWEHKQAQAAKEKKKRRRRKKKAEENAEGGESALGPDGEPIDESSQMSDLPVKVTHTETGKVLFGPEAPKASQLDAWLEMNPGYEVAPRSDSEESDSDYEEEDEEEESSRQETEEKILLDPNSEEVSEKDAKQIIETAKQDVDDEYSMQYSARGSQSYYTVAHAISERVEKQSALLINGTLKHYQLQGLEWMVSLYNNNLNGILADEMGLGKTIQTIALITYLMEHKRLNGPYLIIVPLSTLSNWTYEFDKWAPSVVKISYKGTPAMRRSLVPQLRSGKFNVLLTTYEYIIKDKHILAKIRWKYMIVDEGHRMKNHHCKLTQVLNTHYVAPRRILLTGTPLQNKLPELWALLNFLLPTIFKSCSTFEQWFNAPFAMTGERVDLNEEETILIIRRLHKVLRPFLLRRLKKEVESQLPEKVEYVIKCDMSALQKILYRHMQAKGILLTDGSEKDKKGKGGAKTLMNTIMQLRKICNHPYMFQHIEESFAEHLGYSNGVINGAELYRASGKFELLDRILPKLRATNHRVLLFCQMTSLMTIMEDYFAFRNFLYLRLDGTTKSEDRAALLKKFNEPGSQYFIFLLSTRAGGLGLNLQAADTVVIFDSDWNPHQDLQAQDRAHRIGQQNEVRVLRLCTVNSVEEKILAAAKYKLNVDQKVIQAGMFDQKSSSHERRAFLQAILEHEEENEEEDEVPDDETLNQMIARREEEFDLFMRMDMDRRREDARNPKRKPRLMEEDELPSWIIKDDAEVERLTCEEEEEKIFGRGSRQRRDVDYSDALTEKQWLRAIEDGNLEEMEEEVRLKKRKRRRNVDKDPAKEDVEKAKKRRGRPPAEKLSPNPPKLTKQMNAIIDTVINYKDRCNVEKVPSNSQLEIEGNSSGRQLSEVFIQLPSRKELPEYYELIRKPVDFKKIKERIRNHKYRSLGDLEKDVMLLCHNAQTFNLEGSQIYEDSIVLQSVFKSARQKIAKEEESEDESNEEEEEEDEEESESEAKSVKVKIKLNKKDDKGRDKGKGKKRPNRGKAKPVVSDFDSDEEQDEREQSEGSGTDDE
T1 sequence (P51532 whole entry): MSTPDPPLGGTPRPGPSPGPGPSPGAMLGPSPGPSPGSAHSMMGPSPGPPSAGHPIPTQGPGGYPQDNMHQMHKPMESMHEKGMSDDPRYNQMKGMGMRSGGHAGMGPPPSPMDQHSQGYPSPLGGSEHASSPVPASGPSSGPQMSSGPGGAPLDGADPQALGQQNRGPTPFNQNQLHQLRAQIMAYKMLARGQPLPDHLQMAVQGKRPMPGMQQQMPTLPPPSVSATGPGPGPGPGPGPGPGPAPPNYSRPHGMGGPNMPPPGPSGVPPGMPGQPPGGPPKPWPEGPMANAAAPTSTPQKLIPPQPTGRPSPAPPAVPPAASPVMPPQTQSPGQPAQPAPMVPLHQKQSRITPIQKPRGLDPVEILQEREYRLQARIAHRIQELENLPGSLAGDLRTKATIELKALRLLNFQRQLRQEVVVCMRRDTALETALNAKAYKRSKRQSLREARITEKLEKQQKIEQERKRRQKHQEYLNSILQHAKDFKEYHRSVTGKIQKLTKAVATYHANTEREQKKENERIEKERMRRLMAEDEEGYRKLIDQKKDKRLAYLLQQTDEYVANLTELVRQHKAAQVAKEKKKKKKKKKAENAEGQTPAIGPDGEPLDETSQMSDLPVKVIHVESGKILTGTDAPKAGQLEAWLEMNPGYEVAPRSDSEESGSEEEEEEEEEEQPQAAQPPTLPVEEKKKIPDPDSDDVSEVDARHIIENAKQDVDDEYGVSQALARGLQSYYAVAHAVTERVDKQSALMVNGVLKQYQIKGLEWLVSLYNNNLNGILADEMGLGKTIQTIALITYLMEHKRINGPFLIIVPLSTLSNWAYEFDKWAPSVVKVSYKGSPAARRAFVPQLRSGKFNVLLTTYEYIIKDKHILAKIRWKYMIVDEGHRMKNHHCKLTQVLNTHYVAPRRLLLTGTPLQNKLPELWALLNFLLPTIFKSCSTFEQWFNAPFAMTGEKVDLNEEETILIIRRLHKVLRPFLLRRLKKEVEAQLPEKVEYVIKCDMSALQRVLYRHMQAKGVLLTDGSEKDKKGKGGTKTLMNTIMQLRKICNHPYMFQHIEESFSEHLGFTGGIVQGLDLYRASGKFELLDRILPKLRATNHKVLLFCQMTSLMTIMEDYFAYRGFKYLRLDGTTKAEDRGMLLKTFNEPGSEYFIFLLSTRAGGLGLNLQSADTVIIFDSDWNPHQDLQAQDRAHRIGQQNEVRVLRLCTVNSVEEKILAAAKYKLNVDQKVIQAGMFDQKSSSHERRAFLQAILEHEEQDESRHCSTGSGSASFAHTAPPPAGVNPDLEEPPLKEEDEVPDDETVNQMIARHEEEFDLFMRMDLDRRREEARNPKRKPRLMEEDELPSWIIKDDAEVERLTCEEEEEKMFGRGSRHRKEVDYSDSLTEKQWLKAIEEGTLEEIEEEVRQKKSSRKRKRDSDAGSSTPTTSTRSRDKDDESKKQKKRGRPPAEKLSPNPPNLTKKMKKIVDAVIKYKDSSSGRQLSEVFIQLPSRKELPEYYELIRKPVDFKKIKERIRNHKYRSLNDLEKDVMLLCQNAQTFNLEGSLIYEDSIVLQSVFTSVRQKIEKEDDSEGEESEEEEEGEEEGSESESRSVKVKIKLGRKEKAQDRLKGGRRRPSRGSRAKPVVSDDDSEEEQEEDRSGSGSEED

As for `O=C(NCc1cc2nc(N3CCOc4cc(C(F)F)cnc43)ccc2cn1)c1cc(F)c2c(c1)S(=O)(=O)[C@@H](F)COC2` [Compound 32], the IC50 in assay [1] worked out at 36.7 nM; in assay [2], 1.9 nM. In assay [2], the “Ratio (BRG1 IC50 (μM) divided by BRM IC50 (μM))” value turned out to be 18.96.
The like results for `CN(C)c1cnc2c(c1)OCCN2c1ccc2cnc(CNC(=O)c3cc(F)c4c(c3)S(=O)(=O)[C@@H](F)COC4)cc2n1` [Compound 33] were, in that order, 18.9 nM, 1.9 nM and 11.17.
The like results for `C[C@@H]1CN(c2cccc(-c3ccc4cnc(CNC(=O)c5cc(F)c6c(c5)S(=O)(=O)[C@H](F)C[C@H](C)O6)cc4n3)n2)C[C@H](C)O1` [Compound 34, (2S,4S)—N-((2-(6-((2S,6R)-2,6-dimethylmorpholino)pyridin-2-yl)-1,6-naphthyridin-7-yl)methyl)-4,9-difluoro-2-methyl-3,4-dihydro-2H-benzo[b][1,4]oxathiepine-7-carboxamide 5,5-dioxide] were, in that order, 1470 nM, 120 nM and 12.17.
For `COCCOc1ccc2c(c1)N(c1ccc3cnc(CNC(=O)c4cc(F)c5c(c4)S(=O)(=O)[C@@H](F)CCO5)cc3n1)CCO2` [Compound 35], in that order: 23.3 nM, 1.9 nM and 13.74.
For `CC#Cc1ccc2c(n1)N(c1ccc3cnc(CNC(=O)c4cc(F)c5c(c4)S(=O)(=O)[C@@H](F)CCO5)cc3n1)CCO2` [Compound 37], the results for the IC50 in assay [1] and in assay [2] were 31.9 nM and 2 nM, respectively. For the same molecule, the “Ratio (BRG1 IC50 (μM) divided by BRM IC50 (μM))” value in assay [2] was found to be 15.93.
For `O=C(NCc1cc2nc(N3CCOc4cc(C5CC5)cnc43)ccc2cn1)c1ccc2c(c1)S(=O)(=O)[C@@H](F)CCO2` [Compound 38], in that order: 33.9 nM, 2 nM and 16.77.
The like results for `O=C(NCc1cc2nc(N3CCOc4ccc(C5CC5)nc43)ccc2cn1)c1ccc2c(c1)S(=O)(=O)[C@@H](F)COC2` [Compound 39] were, in that order, 24.6 nM, 2 nM and 13.44.
Take `O=C(NCc1cc2nc(N3CCOc4cc(C5CC5)cnc43)ccc2cn1)c1cc(F)c2c(c1)S(=O)(=O)[C@@H](F)CCO2` [Compound 40]: the IC50 in assay [1] was determined as 38.5 nM. In addition, in assay [2], the “Ratio (BRG1 IC50 (μM) divided by BRM IC50 (μM))” value stood at 16.70 and the IC50 came to 2 nM.
For `C[C@@H]1C[C@H]1c1ccc2c(n1)N(c1ccc3cnc(CNC(=O)c4cc(F)c5c(c4)S(=O)(=O)[C@@H](F)COC5)cc3n1)CCO2` [Compound 41], in that order: 46.4 nM, 20.00 and 2 nM.
The like results for `O=C(NCc1cc2nc(-c3cccc(OC(F)F)n3)ccc2cn1)c1ccc2c(c1)S(=O)(=O)[C@@H](F)CCOC2` [Compound 42] were, in that order, 27 nM, 13.35 and 2 nM.
In the case of `COc1nc([C@](C)(F)C(F)F)ccc1-c1ccc2cnc(CNC(=O)c3ccc4c(c3)S(=O)(=O)[C@@H](F)CCOC4)cc2n1` [Compound 43], the IC50 came out at 40.6 nM in assay [1] and 2 nM in assay [2].
As for `COc1nc([C@H](F)CF)ccc1-c1ccc2cnc(CNC(=O)c3cc(F)c4c(c3)S(=O)(=O)[C@@H](F)COC4)cc2n1` [Compound 44], the IC50 in assay [1] amounted to 64.1 nM. Also, in assay [2], the “Ratio (BRG1 IC50 (μM) divided by BRM IC50 (μM))” value is 23.96 and the IC50 worked out at 2.1 nM.
As to `CO[C@H]1C[C@H]1c1cnc2c(c1)OCCN2c1ccc2cnc(CNC(=O)c3cc(F)c4c(c3)S(=O)(=O)[C@@H](F)CCO4)cc2n1` [Compound 45], the IC50 was 25.8 nM in assay [1] and 2.1 nM in assay [2]. Moreover, in assay [2], the “Ratio (BRG1 IC50 (μM) divided by BRM IC50 (μM))” value is given as 12.59.
The like results for `COc1nc([C@@H](F)CF)ccc1-c1ccc2cnc(CNC(=O)c3cc(F)c4c(c3)S(=O)(=O)[C@@H](F)COC4)cc2n1` [Compound 46] were, in that order, 47.7 nM, 2.3 nM and 20.83.
For `C[C@@H]1CCN1c1cnc2c(c1)OCCN2c1ccc2cnc(CNC(=O)c3cc(F)c4c(c3)S(=O)(=O)[C@@H](F)CCO4)cc2n1` [Compound 47], in that order: 54.3 nM, 2.3 nM and 16.31.
As to `O=C(NCc1cc2nc(N3CCOc4cc(N5CCC5)cnc43)ccc2cn1)c1cc(F)c2c(c1)S(=O)(=O)[C@@H](F)COC2` [Compound 48], the IC50 in assay [1] was 34.1 nM. In addition, in assay [2], the “Ratio (BRG1 IC50 (μM) divided by BRM IC50 (μM))” value was 13.42 and inhibition was half-maximal at 2.3 nM (IC50).
The like results for `O=C(NCc1cc2nc(N3CCOc4cc(N5C[C@@H](F)[C@H](F)C5)cnc43)ccc2cn1)c1cc(F)c2c(c1)S(=O)(=O)[C@@H](F)COC2` [Compound 50] were, in that order, 38.7 nM, 15.78 and 2.5 nM.
The like results for `Cc1cnc2c(c1)OCCN2c1ccc2cnc(CNC(=O)c3cc(F)c4c(c3)S(=O)(=O)[C@@H](F)CCO4)cc2n1` [Compound 51] were, in that order, 42.1 nM, 18.72 and 2.5 nM.
The like results for `C[C@@H]1CN(c2cccc(/C=C/c3ccnc(CNC(=O)c4cc(F)c5c(c4)S(=O)(=O)[C@@H](F)CCO5)c3)n2)C[C@H](C)O1` [Compound 52, (R)—N-((4-((E)-2-(6-((2S,6R)-2,6-dimethylmorpholino)pyridin-2-yl)vinyl)pyridin-2-yl)methyl)-4,9-difluoro-3,4-dihydro-2H-benzo[b][1,4]oxathiepine-7-carboxamide 5,5-dioxide] were, in that order, 56 nM, 22.78 and 2.5 nM.
Turning to `COc1nc(C(F)F)ccc1-c1ccc2cnc(CNC(=O)c3cc(F)c4c(c3)S(=O)(=O)[C@@H](F)COC4)cc2n1` [Compound 53], the IC50 in assay [1] worked out at 54.3 nM. In addition, in assay [2], the “Ratio (BRG1 IC50 (μM) divided by BRM IC50 (μM))” value turned out to be 19.48 and inhibition was half-maximal at 2.5 nM (IC50).
The like results for `CO[C@H]1CN(c2cccc(-c3ccc4cnc(CNC(=O)c5cc(F)c6c(c5)S(=O)(=O)[C@@H](F)COC6)cc4n3)n2)C[C@@H]1F` [Compound 54] were, in that order, 27.9 nM, 9.72 and 2.5 nM.
With `O=C(NCc1cc2nc(N3CCOc4ccc(C5CC5)nc43)ccc2cn1)c1cc(F)c2c(c1)S(=O)(=O)[C@@H](F)CCO2` [Compound 55], the IC50 in assay [1] amounted to 124 nM. Besides, in assay [2], the “Ratio (BRG1 IC50 (μM) divided by BRM IC50 (μM))” value is reported as 35.69 and the IC50 worked out at 2.5 nM.
In the case of `[2H]C1([2H])OC([2H])([2H])[C@H](F)S(=O)(=O)c2cc(C(=O)NCc3cc4nc(N5CCOc6cc(N7CC(F)C7)cnc65)ccc4cn3)cc(F)c21` [Compound 56], the 50% inhibitory concentration (IC50) in assay [1] stood at 58.2 nM; in assay [2] it was 2.5 nM.
As for `O=C(NCc1cc2nc(N3CCOc4ccc(N5CC[C@H](F)C5)nc43)ccc2cn1)c1cc(F)c2c(c1)S(=O)(=O)[C@@H](F)CCO2` [Compound 57], the results for the IC50 in assay [1] and in assay [2] were 36.8 nM and 2.5 nM, respectively. Moreover, in assay [2], the “Ratio (BRG1 IC50 (μM) divided by BRM IC50 (μM))” value is reported as 17.61.
The like results for `O=C(NCc1cc2nc(N3CCOc4ccc(C(F)F)nc43)ccc2cn1)c1cc(F)c2c(c1)S(=O)(=O)[C@@H](F)COC2` [Compound 58] were, in that order, 64.4 nM, 2.5 nM and 23.60.
For the molecule `[2H]C1([2H])OC([2H])([2H])[C@H](F)S(=O)(=O)c2cc(C(=O)NCc3cc4nc(N5CCOc6ccc(C7CC7)nc65)ccc4cn3)cc(F)c21` [Compound 59], the half-maximal inhibitory concentration (IC50) in assay [1] was found to be 72.5 nM; in assay [2], 2.5 nM.
In the case of `O=C(NCc1cc2nc(-c3ccc(C(F)F)c(C4CC4)n3)ccc2cn1)c1cc(F)c2c(c1)S(=O)(=O)[C@@H](F)CCO2` [Compound 60], the IC50 in assay [1] came to 53.1 nM; in assay [2], 2.6 nM. In addition, the “Ratio (BRG1 IC50 (μM) divided by BRM IC50 (μM))” value in assay [2] worked out at 18.66.
For `O=C(NCc1cc2nc(N3CCOc4cc(C5CC5)cnc43)ccc2cn1)c1cc(Cl)c2c(c1)S(=O)(=O)[C@@H](F)COC2` [Compound 61], in that order: 48.5 nM, 2.6 nM and 21.08.
For `O=C(NCc1cc2nc(N3CCOc4ccc([C@H](F)CF)nc43)ccc2cn1)c1cc(F)c2c(c1)S(=O)(=O)[C@@H](F)COC2` [Compound 62], in that order: 79.7 nM, 2.6 nM and 28.84.
